{"source": "paper PMC7411887", "about": "“New Paracyclophanylthiazoles with Anti-Leukemia Activity: Design, Synthesis, Molecular Docking, and Mechanistic Studies” (Molecules, 2020)", "test_in_all_cases": "NCI five-dose assay", "key": {"[1]": {"system": "HL-60(TB)", "format": "cell-based", "conditions": "Leukemia HL-60(TB)"}, "[2]": {"system": "K-562", "format": "cell-based", "conditions": "Leukemia K-562"}, "[3]": {"system": "SR", "format": "cell-based", "conditions": "Leukemia SR"}, "[4]": {"system": "M14", "format": "cell-based", "conditions": "Homo sapiens, Melanoma M14"}, "[5]": {"system": "SK-MEL-28", "format": "cell-based", "conditions": "Melanoma SK-MEL-28"}, "[6]": {"system": "OVCAR-4", "format": "cell-based, human", "conditions": "Ovarian Cancer OVCAR-4"}, "[7]": {"system": "TK-10", "format": "cell-based, human", "conditions": "Renal Cancer TK-10"}, "[8]": {"system": "PC-3", "format": "cell-based", "conditions": "Prostate Cancer PC-3"}, "[9]": {"system": "T-47D", "format": "cell-based", "conditions": "Breast Cancer T-47D"}, "[10]": {"conditions": "Homo sapiens, read-out: GI50 Concentration/Cell Line"}, "[11]": {"conditions": "Homo sapiens, read-out: LC50 (the source's name)"}}}
{"smiles": "COC(=O)C=C1SC(=NNC(=O)c2cc3ccc2CCc2ccc(cc2)CC3)N(c2ccccc2)C1=O", "note": "[Compound 3a]", "values": [{"measurement": "GI50", "setting": "[1]; [10]", "result": 2.7, "unit": "µM"}, {"measurement": "CC50", "setting": "[1]; [11]", "result": "> 100", "unit": "µM"}, {"measurement": "TGI Concentration/Cell Line", "setting": "[1]", "result": ">100", "unit": "µM"}, {"measurement": "GI50", "setting": "[2]; Homo sapiens, K562, read-out: GI50 Concentration/Cell Line", "result": 3.15, "unit": "µM"}, {"measurement": "CC50", "setting": "[2]; Homo sapiens, K562, read-out: LC50 (the source's name)", "result": "> 100", "unit": "µM"}, {"measurement": "TGI Concentration/Cell Line", "setting": "[2]", "result": ">100", "unit": "µM"}, {"measurement": "GI50", "setting": "[3]; [10]", "result": 2.46, "unit": "µM"}, {"measurement": "CC50", "setting": "[3]; [11]", "result": "> 100", "unit": "µM"}, {"measurement": "TGI Concentration/Cell Line", "setting": "[3]", "result": ">100", "unit": "µM"}, {"measurement": "LC50", "setting": "[4]", "result": "> 100", "unit": "µM"}, {"measurement": "GI50", "setting": "[4]; read-out: GI50 Concentration/Cell Line", "result": 3.27, "unit": "µM"}, {"measurement": "LC50 (concentration causing 50% net cell kill)", "setting": "[5]; Homo sapiens", "result": "> 100", "unit": "µM"}, {"measurement": "GI50", "setting": "[5]; [10]", "result": 2.97, "unit": "µM"}, {"measurement": "TGI Concentration/Cell Line", "setting": "[5]", "result": 9.87, "unit": "µM"}, {"measurement": "GI50", "setting": "[6]; [10]", "result": 3.17, "unit": "µM"}, {"measurement": "TGI Concentration/Cell Line", "setting": "[6]", "result": 9.88, "unit": "µM"}, {"measurement": "GI50", "setting": "[7]; [10]", "result": 2.03, "unit": "µM"}, {"measurement": "TGI Concentration/Cell Line", "setting": "[7]", "result": 5.60, "unit": "µM"}, {"measurement": "LC50", "setting": "[8]; Homo sapiens", "result": 7.7, "unit": "µM"}, {"measurement": "GI50", "setting": "[8]; [10]", "result": 1.71, "unit": "µM"}, {"measurement": "TGI Concentration/Cell Line", "setting": "[8]", "result": 3.63, "unit": "µM"}, {"measurement": "TGI Concentration/Cell Line", "setting": "[9]", "result": 3.65, "unit": "µM"}, {"measurement": "GI50", "setting": "[9]; Homo sapiens, T47D, read-out: GI50 Concentration/Cell Line", "result": 1.54, "unit": "µM"}, {"measurement": "CC50", "setting": "[9]; Homo sapiens, T47D, read-out: LC50 (the source's name)", "result": 8.68, "unit": "µM"}]}
